A value given as a limit tells only on which side of the number the result lay.

As a reminder, the inhibition is the drop in the measured response relative to a control, in per cent. One may read the IC50 as the concentration needed to halve the response being measured.

Holding throughout (experiment): In vitro competitive activity-based protein profiling (gel-based, FP-Rh or HT-01 probe)
Type in all cases: biochemical

For assay [1], the target named is T1, ABHD6 (Mus musculus, UniProt Q8R2Y0).
T1 construct: Proteomes (mouse brain membrane fraction or cell lysates); from tissue; host or cells: mouse brain membrane fraction (or cell lysates, not specified)
T1 sequence (Q8R2Y0 1-336): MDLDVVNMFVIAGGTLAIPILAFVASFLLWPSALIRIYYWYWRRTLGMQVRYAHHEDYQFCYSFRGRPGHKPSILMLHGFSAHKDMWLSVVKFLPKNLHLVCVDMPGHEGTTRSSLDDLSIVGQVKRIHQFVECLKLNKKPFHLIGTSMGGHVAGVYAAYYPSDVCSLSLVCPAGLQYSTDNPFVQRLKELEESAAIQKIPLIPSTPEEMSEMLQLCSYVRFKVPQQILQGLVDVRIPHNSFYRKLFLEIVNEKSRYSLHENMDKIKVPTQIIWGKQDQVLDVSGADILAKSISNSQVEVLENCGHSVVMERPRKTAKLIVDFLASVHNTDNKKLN
The conditions noted are these: for inhibition at 10 µM: 10 μM inhibitor, read-out: % Inhibition at 10 μM, C = ABHD6; for inhibition at 1 µM: 1 μM inhibitor, read-out: % Inhibition at 1 μM, C = ABHD6; for IC50: mouse brain membrane fraction or cell lysates, 30 min preincubation at 37° C., read-out: Mouse (IC50 value, nM) ABHD6. The method, then: (§1) In Vitro Competitive Activity-Based Protein Profiling.
(§2) Proteomes (mouse brain membrane fraction or cell lysates) (50 μL, 1.0 mg/mL total protein concentration) were preincubated with varying concentrations of inhibitors at 37° C. After 30 min, FP-Rh or HT-01 ([…], 50 μM in DMSO) was added and the mixture was incubated for another 30 min at 37° C. Reactions were quenched with SDS loading buffer (15 μL—4×) and run on SDS-PAGE. Following gel imaging, serine hydrolase activity was determined by measuring fluorescent intensity of gel bands corresponding to MAGL, ABHD6, FAAH, and PLA2G7 using ImageJ 1.43u software.

Assay [2] deals with T2, FAAH (Mus musculus, UniProt O08914).
T2 construct: Proteomes (mouse brain membrane fraction or cell lysates); from tissue; host or cells: mouse brain membrane fraction (or cell lysates, not specified)
T2 sequence (O08914 1-579): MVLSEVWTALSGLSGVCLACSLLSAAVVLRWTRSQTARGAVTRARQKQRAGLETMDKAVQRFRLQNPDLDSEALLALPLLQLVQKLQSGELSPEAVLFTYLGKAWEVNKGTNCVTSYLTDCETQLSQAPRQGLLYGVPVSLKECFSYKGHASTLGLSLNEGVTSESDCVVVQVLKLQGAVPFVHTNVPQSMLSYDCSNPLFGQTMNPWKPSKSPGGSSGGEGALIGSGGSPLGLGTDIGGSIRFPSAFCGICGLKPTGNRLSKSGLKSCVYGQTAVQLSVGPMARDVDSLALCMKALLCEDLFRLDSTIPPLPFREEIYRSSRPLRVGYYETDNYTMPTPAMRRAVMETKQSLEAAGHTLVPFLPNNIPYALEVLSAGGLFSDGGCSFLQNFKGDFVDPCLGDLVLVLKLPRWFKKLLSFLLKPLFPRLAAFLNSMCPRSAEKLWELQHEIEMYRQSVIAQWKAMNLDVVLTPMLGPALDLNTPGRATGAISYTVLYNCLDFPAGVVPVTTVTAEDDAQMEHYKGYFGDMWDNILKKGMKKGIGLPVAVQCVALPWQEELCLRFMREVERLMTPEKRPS
The conditions noted are these: for inhibition at 10 µM: 10 μM inhibitor, read-out: % Inhibition at 10 μM, B = FAAH; for inhibition at 1 µM: 1 μM inhibitor, read-out: % Inhibition at 1 μM, B = FAAH; for IC50: mouse brain membrane fraction or cell lysates, 30 min preincubation at 37° C., read-out: Mouse (IC50 value, nM) FAAH. The protocol: as §1, §2

Assay [3] concerns the target T3, MAGL (Mus musculus, UniProt O35678).
T3 construct: Proteomes (mouse brain membrane fraction or cell lysates); from tissue; host or cells: mouse brain membrane fraction (or cell lysates, not specified)
T3 sequence (O35678 1-303): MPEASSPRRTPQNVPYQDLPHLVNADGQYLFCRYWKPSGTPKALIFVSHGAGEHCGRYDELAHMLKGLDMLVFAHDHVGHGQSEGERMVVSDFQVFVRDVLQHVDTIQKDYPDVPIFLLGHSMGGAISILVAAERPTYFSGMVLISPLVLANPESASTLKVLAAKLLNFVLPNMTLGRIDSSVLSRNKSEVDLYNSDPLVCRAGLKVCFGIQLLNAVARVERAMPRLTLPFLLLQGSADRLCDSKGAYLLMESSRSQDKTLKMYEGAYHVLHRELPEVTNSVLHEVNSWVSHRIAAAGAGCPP
Conditions: for inhibition at 10 µM: 10 μM inhibitor; for inhibition at 1 µM: 1 μM inhibitor; for IC50: mouse brain membrane fraction or cell lysates, 30 min preincubation at 37° C., read-out: Mouse (IC50 value, nM) MAGL. The protocol: as §1, §2

Consider `CN1CCCN(C(=O)n2cc(Cl)cn2)CC1` [Example 190, (4-Chloro-1H-pyrazol-1-yl)(4-methyl-1,4-diazepan-1-yl)methanone], for which the inhibition at 10 µM in assay [1], in assay [2] and in assay [3] was < 25% throughout.
For the compound `O=C(c1cnn(C(=O)N2CCN(C(c3ccc(Cl)cc3)c3ccc(Cl)cc3)CC2)c1)N1CCCCC1` [Example 66, (4-(Bis(4-chlorophenyl)methyl)piperazin-1-yl)(4-(piperidine-1-carbonyl)-1H-pyrazol-1-yl)methanone], in assay [1], the inhibition at 1 µM is > 75%, the inhibition at 10 µM is > 75% and the IC50 was 100 to 1000 nM. In assay [2], the inhibition at 1 µM is < 25%, the inhibition at 10 µM lay within 25 to 75% and the IC50 was > 1000 nM. Also, in assay [3], the inhibition at 1 µM was > 75%, the inhibition at 10 µM was > 75% and the 50% inhibitory concentration (IC50) was 100 to 1000 nM.
`O=C(N1CCN(Cc2ccc(Cl)cc2N2CCC3(CCOCC3)C2)CC1)n1cc(Cl)cn1` [Example 102, (4-Chloro-1H-pyrazol-1-yl)(4-(4-chloro-2-(8-oxa-2-azaspiro[4.5]decan-2-yl)benzyl)piperazin-1-yl)methanone]: the inhibition at 1 µM in assay [1] is > 75%; in assay [2] it was < 25%; in assay [3], > 75%. Moreover, the IC50 in assay [1] is < 100 nM; in assay [2], > 1000 nM; in assay [3], < 100 nM.
With `O=C(c1cnn(C(=O)N2CCN(C(c3ccc(Cl)cc3)c3ccc(Cl)cc3)CC2)c1)N1CCC1` [Example 68, Azetidin-1-yl(1-(4-(bis(4-chlorophenyl)methyl)piperazine-1-carbonyl)-1H-pyrazol-4-yl)methanone], the inhibition at 1 µM was > 75% in assay [1], < 25% in assay [2] and > 75% in assay [3]. In addition, the inhibition at 10 µM in assay [1], in assay [2] and in assay [3] was > 75% in each case. In addition, the IC50 is 100 to 1000 nM in assay [1], > 1000 nM in assay [2] and 100 to 1000 nM in assay [3].
Regarding `O=C(N1CCN(Cc2ccc(C(F)(F)F)cc2N2CCCC2)CC1)n1cc(Cl)cn1` [Example 125, (4-Chloro-1H-pyrazol-1-yl)(4-(2-(pyrrolidin-1-yl)-4-(trifluoromethyl)benzyl)piperazin-1-yl)methanone], the inhibition at 1 µM in assay [1] was > 75%; in assay [2], < 25%; in assay [3], > 75%. For the same compound, the IC50 is 100 to 1000 nM in assay [1], > 1000 nM in assay [2] and < 100 nM in assay [3].
As to `O=C(N1CCN(C(c2ccc(Cl)cc2)c2ccc(Cl)cc2)CC1)n1cc(C(F)(F)F)cn1` [Example 118, (4-(Bis(4-chlorophenyl)methyl)piperazin-1-yl)(4-(trifluoromethyl)-1H-pyrazol-1-yl)methanone], in assay [1], the inhibition at 1 µM was > 75%, the inhibition at 10 µM is > 75% and the IC50 lay in the range of 100 to 1000 nM. In assay [2], the inhibition at 1 µM was < 25%, the inhibition at 10 µM is > 75% and the IC50 was > 1000 nM. Besides, in assay [3], the inhibition at 1 µM was > 75%, the inhibition at 10 µM was > 75% and the IC50 was < 100 nM.
In the case of `O=C(N1CCCC1)n1cc(Cl)cn1` [Example 98, (4-Chloro-1H-pyrazol-1-yl)(pyrrolidin-1-yl)methanone], the inhibition at 10 µM in assay [1] is < 25%; in assay [2], > 75%; in assay [3], 25 to 75%.
`O=C(N1CCN(C(c2ccc(Cl)cc2)c2ccc(Cl)cc2)CC1)n1cc(-c2ccccc2)cn1` [Example 119, (4-(Bis(4-chlorophenyl)methyl)piperazin-1-yl)(4-phenyl-1H-pyrazol-1-yl)methanone]: the inhibition at 1 µM is < 25% in assay [1], < 25% in assay [2] and 25 to 75% in assay [3]. In addition, the values for the inhibition at 10 µM in assay [1], in assay [2] and in assay [3] were > 75%, < 25% and > 75%, respectively.
For the compound `O=C(N1CCN(C(c2ccc(Cl)cc2)c2ccc(Cl)cc2)CC1)n1cccn1` [Example 46, (4-(Bis(4-chlorophenyl)methyl)piperazin-1-yl)(1H-pyrazol-1-yl)methanone], the results for the IC50 in assay [1], in assay [2] and in assay [3] were > 1000 nM, > 1000 nM and < 100 nM, respectively.
For `Cc1ccc(-c2cnn(C(=O)N3CCCC3)c2)cc1` [Example 104, Pyrrolidin-1-yl(4-(p-tolyl)-1H-pyrazol-1-yl)methanone], the inhibition at 10 µM was > 75% in assay [1], > 75% in assay [2] and < 25% in assay [3].
On to `Cc1cc(-c2ccccc2)ccc1CN1CCN(C(=O)n2cccn2)CC1` [Example 94, (4-((3-Methyl-[1,1′-biphenyl]-4-yl)methyl)piperazin-1-yl)(1H-pyrazol-1-yl)methanone], for which the IC50 in assay [1] is > 1000 nM; in assay [2], 100 to 1000 nM; in assay [3], < 100 nM.
`O=C(N1CCCCC1)n1cc(Cl)cn1` [Example 96, (4-Chloro-1H-pyrazol-1-yl)(piperidin-1-yl)methanone]: the inhibition at 10 µM in assay [1], in assay [2] and in assay [3] was > 75% throughout.
Take `O=C(N1CCN(Cc2c(N3CCCC3)cccc2C(F)(F)F)CC1)n1cc(Cl)cn1` [Example 99, (4-Chloro-1H-pyrazol-1-yl)(4-(2-(pyrrolidin-1-yl)-6-(trifluoromethyl)benzyl)piperazin-1-yl)methanone]: the inhibition at 1 µM in assay [1], in assay [2] and in assay [3] was > 75% throughout.
Take `O=C(N1CCN(Cc2ccc(Cl)cc2N2CCCC2)CC1)n1cc(Cl)cn1` [Example 50, (4-Chloro-1H-pyrazol-1-yl)(4-(4-chloro-2-(pyrrolidin-1-yl)benzyl)piperazin-1-yl)methanone]: the results for the half-maximal inhibitory concentration (IC50) in assay [1], in assay [2] and in assay [3] were < 100 nM, 100 to 1000 nM and < 100 nM, respectively.
Turning to `O=C(N1CCCC1)n1cc(-c2ccc(Cl)cc2)cn1` [Example 105, (4-(4-Chlorophenyl)-1H-pyrazol-1-yl)(pyrrolidin-1-yl)methanone], the inhibition at 10 µM is > 75% in assay [1], > 75% in assay [2] and < 25% in assay [3].
Turning to `O=C(N1CCN(Cc2ccc(C(F)(F)F)cc2N2CCCC2)CC1)n1cc(F)cn1` [Example 126, (4-Fluoro-1H-pyrazol-1-yl)(4-(2-(pyrrolidin-1-yl)-4-(trifluoromethyl)benzyl)piperazin-1-yl)methanone], the inhibition at 1 µM in assay [1], in assay [2] and in assay [3] was > 75% throughout. The IC50 was 100 to 1000 nM in assay [1], 100 to 1000 nM in assay [2] and < 100 nM in assay [3].
For `O=C(N1CCN(C(c2ccc(Cl)cc2)c2ccc(Cl)cc2)CC1)n1cc(Cl)cn1` [Example 100, (4-(Bis(4-chlorophenyl)methyl)piperazin-1-yl)(4-chloro-1H-pyrazol-1-yl)methanone], the IC50 was 100 to 1000 nM in assay [1], > 1000 nM in assay [2] and < 100 nM in assay [3].
